{"source": "patent US12048720B2", "about": "“Compositions comprising bacterial strains” (CJ BIOSCIENCE, INC., priority 2017, dated 2024)", "system": "SH-SY5Y neuroblastoma cells", "experiment": "Neuroprotection / cell viability of differentiated SH-SY5Y neuroblastoma cells with or without MPP (CCK-8)", "format": "cell-based, human", "settings": "RA-differentiated SHSY-5Y cells treated with MPP+, FIG. 11", "experimental": "Neuroblastoma cells were treated with compositions comprising bacterial strains according to the invention. The SH-SY5Y neuroblastoma cells used are dopamine producing and well-established as an in vitro model for studying neurodegenerative diseases. The ability of the bacterial strains to increase neuroproliferation was observed. The neuroblastoma cells were treated also treated dopaminergic neurotoxin 1-methyl-4-phenylpyridinium (MPP), which induces permanent symptoms of Parkinson's disease in neuroblastoma cells. The ability of the bacterial strains to act as a neuroprotectant against MPP was investigated.\nSH-SY5Y neuroblastoma cells were purchased from ECCACC (Cat. no: 94030304) and were grown in MEM (Sigma Aldrich, cat n. M2279) supplemented with Nutrient Mixture F-12 Ham (Sigma Aldrich, cat n. N4888).\nOnce grown the SH-SY5Y neuroblastoma cells were plated on 96-well plate at 11,000 cells/well and incubated for 2 days. […] Cell viability was measured by using CCK-8 reagent (Sigma Aldrich, Cell Counting Kit—8, cat. n. 96992-3000TESTS-F) and read at 450 nm wavelength.\nRA-differentiated SHSY-5Y cells were treated with MPP+, the active metabolite of MPTP, a chemical widely used to mimic in vitro and in vivo some of the features of PD pathology. Cell viability was measured as the rate of mitochondria respiration (FIG. 11).", "data": [{"smiles": "O=c1c(O)c(-c2ccc(O)c(O)c2)oc2cc(O)cc(O)c12", "note": "[quercetin]", "values": [{"measurement": "protection compared to YCFA-MPP+ treated sample", "value": "about 20%"}]}]}
